# Assay results from paper PMC4501872 (The Journal of steroid biochemistry and molecular biology, 2015).
# Where two headings read alike, the source gives them in different places.
# Key:
# human SULT2A1 = target: T1, human SULT2A1 (Homo sapiens, UniProt Q06520); assay type: biochemical; settings: for rate of 3-sulfate formation in the absence of celecoxib: 2 μM 35S-PAPS for 6D-E2, 20 μM PAPS for the others; for rate of 17-sulfate formation in the absence of celecoxib: 2 μM 35S-PAPS for 6D-E2, 20 μM PAPS for 17β-Eqn; for SULT2A1 enzyme activity toward the substrate: control activity
# T1 sequence (Q06520 1-285): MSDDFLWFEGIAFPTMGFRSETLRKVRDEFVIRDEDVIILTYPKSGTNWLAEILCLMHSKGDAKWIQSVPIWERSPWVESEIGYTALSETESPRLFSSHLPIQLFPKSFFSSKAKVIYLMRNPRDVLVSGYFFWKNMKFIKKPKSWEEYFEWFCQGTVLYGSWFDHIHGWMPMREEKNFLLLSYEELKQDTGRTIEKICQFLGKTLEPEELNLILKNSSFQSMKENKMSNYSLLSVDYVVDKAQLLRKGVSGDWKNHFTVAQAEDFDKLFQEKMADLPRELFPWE
# [1] = calculated, following a therapeutic dose of 200 mg; cited from earlier work
# [2] = No celecoxib, 0.16 μM E2, PAPS 20 μM
# [3] = No celecoxib, 0.4 μM E2, PAPS 20 μM
# [4] = Celecoxib (50 μM) added after PAPS (20 μM), 0.16 μM E2
# [5] = Celecoxib (50 μM) added after PAPS (20 μM), 0.4 μM E2
# [6] = Celecoxib (50 μM) added before PAPS (20 μM), 0.16 μM E2
# [7] = Celecoxib (50 μM) added before PAPS (20 μM), 0.4 μM E2
structure (smiles),measurement,setting,value
"C[C@]12CC[C@@H]3c4ccc(O)c(O)c4CC[C@H]3[C@@H]1CC[C@@H]2O [4-OH-E2, 4-hydroxyestradiol]",rate of 3-sulfate formation in the absence of celecoxib,human SULT2A1; 0.4 μM substrate,15 pmol/min/mg protein
"C[C@]12CC[C@H]3C(=CCc4cc(O)ccc43)[C@@H]1CC[C@@H]2O [17β-Eq, 17β-dihydroequilin]",rate of 3-sulfate formation in the absence of celecoxib,human SULT2A1; 0.4 μM substrate,46 pmol/min/mg protein
"C[C@]12CCc3c(ccc4cc(O)ccc34)[C@@H]1CC[C@@H]2O [17β-Eqn, 17β-dihydroequilenin]",rate of 17-sulfate formation in the absence of celecoxib,human SULT2A1; 0.4 μM substrate,11.4 pmol/min/mg protein
same,rate of 3-sulfate formation in the absence of celecoxib,human SULT2A1; 0.4 μM substrate,56 pmol/min/mg protein
"C[C@]12CC=C3c4ccc(O)cc4CC[C@H]3[C@@H]1CC[C@@H]2O [9D-E2, 9-dehydroestradiol]",rate of 3-sulfate formation in the absence of celecoxib,human SULT2A1; 0.4 μM substrate,14 pmol/min/mg protein
"C[C@]12CC[C@@H]3c4cc(O)c(O)cc4CC[C@H]3[C@@H]1CC[C@@H]2O [2-OH-E2, 2-hydroxyestradiol]",rate of 3-sulfate formation in the absence of celecoxib,human SULT2A1; 0.4 μM substrate,2 pmol/min/mg protein
"C[C@]12CC[C@@H]3c4ccc(O)cc4CC[C@H]3[C@@H]1CC[C@@H]2O [17β-E2, 17β-estradiol]",17-sulfate produced relative to 3-sulfate in the absence of celecoxib,"human SULT2A1; 0.4 μM substrate, Figure 6G",around 76 times
same,"Product formed, 3-sulfate",human SULT2A1; [2],150 pmol/min/mg protein
same,"Product formed, 17-sulfate",human SULT2A1; [2],Not detected
same,"Product formed, Total sulfates",human SULT2A1; [2],150 pmol/min/mg protein
same,"Product formed, 3-sulfate",human SULT2A1; [3],306 pmol/min/mg protein
same,"Product formed, 17-sulfate",human SULT2A1; [3],Not detected
same,"Product formed, Total sulfates",human SULT2A1; [3],306 pmol/min/mg protein
"C[C@]12CC[C@H]3[C@@H](CC=C4C[C@@H](O)CC[C@@]43C)[C@@H]1CC[C@@H]2O [AD, 5-androsten-3β,17β-diol]",SULT2A1 enzyme activity toward the substrate,human SULT2A1; 0.4 μM substrate,8–9 nmol sulfate/min/mg protein
"C[C@]12CC[C@H]3[C@@H](CCC4=CC(=O)CC[C@@]43C)[C@@H]1CC[C@H]2O [Epi-T, epi-testosterone]",SULT2A1 enzyme activity toward the substrate,human SULT2A1; 0.4 μM substrate,8–9 nmol sulfate/min/mg protein
same,rate of sulfonation of Epi-T relative to T,"human SULT2A1; control activities, 0.4 μM substrate",7 times
Cc1ccc(-c2cc(C(F)(F)F)nn2-c2ccc(S(N)(=O)=O)cc2)cc1 [celecoxib],effect on sulfonation of E1,"human SULT2A1; 0–80 μM celecoxib, 0.4 μM E1, p > 0.05, ANOVA",not affected significantly
same,celecoxib concentration at which 4-OH-E2 17-sulfate and 3-sulfate curves cross,"human SULT2A1; 0.4 μM 4-OH-E2, 20 μM PAPS",approximately 30 μM
same,enhancement of total sulfate product formation from 6D-E2,"human SULT2A1; 50 μM celecoxib, 0.4 μM 6D-E2",over 8 fold
same,increase of total product formation from 9D-E2,"human SULT2A1; 80 μM celecoxib, 0.4 μM 9D-E2",9.4 times
same,stimulation of 17β-Eqn–17-sulfate formation compared with absence of celecoxib,"human SULT2A1; 80 μM celecoxib, 0.4 μM 17β-Eqn",34 fold
same,celecoxib concentrations at which 17β-E2–3-S decreased,"human SULT2A1; 0.05, 0.2 and 0.4 μM 17β-E2",≥ 50 µM
same,celecoxib concentration at which stimulation of 17β-E2–17-S formation peaked,human SULT2A1; 0.2 and 0.4 μM 17β-E2,50 µM
same,"Product formed, 3-sulfate",human SULT2A1; [4],85 pmol/min/mg protein
same,"Product formed, 17-sulfate",human SULT2A1; [4],199 pmol/min/mg protein
same,"Product formed, Total sulfates",human SULT2A1; [4],284 pmol/min/mg protein
same,"Product formed, 3-sulfate",human SULT2A1; [5],177 pmol/min/mg protein
same,"Product formed, 17-sulfate",human SULT2A1; [5],387 pmol/min/mg protein
same,"Product formed, Total sulfates",human SULT2A1; [5],564 pmol/min/mg protein
same,"Product formed, 3-sulfate",human SULT2A1; [6],155 pmol/min/mg protein
same,"Product formed, 17-sulfate",human SULT2A1; [6],432 pmol/min/mg protein
same,"Product formed, Total sulfates",human SULT2A1; [6],587 pmol/min/mg protein
same,"Product formed, 3-sulfate",human SULT2A1; [7],363 pmol/min/mg protein
same,"Product formed, 17-sulfate",human SULT2A1; [7],1076 pmol/min/mg protein
same,"Product formed, Total sulfates",human SULT2A1; [7],1439 pmol/min/mg protein
same,effect on sulfonation of DHEA or AD at low concentrations,human SULT2A1; celecoxib 0–40 μM,did not affect
same,effect on 17β-Eq-3-sulfate formation,"human SULT2A1; celecoxib range studied (0–80 μM), 0.4 μM 17β-Eq",No inhibition
same,rate of 3-sulfate formation when inhibited by celecoxib (Figure 6G substrate),human SULT2A1; data not shown,< 1 pmol/min/mg protein
same,"increase of total sulfonation of 6D-E2, 17β-Eqn and 9D-E2",human SULT2A1; summary in discussion,over 8 fold
same,effect on formation of 3Me-E2–17β-sulfate,"human SULT2A1; up to 80 μM celecoxib, 0.4 μM 3Me-E2, not saturated at 80 μM",stimulated the formation of 3Me-E2–17β-sulfate in a concentration dependent manner
same,maximum liver concentration of celecoxib,[1],230 µM
"C[C@]12CC[C@@H]3c4ccc(O)cc4C=C[C@H]3[C@@H]1CC[C@@H]2O [6D-E2, 6-dehydroestradiol]",rate of 17-sulfate formation in the absence of celecoxib,human SULT2A1; 0.4 μM substrate,2 pmol/min/mg protein
same,rate of 3-sulfate formation in the absence of celecoxib,human SULT2A1; 0.4 μM substrate,51 pmol/min/mg protein
"C[C@]12CC[C@H](O)CC1=CC[C@@H]1[C@@H]2CC[C@]2(C)C(=O)CC[C@@H]12 [DHEA, dehydroepiandrosterone]",SULT2A1 enzyme activity toward the substrate,human SULT2A1; 0.4 μM substrate,8–9 nmol sulfate/min/mg protein
